Common to all, as to assay type: cell-based
What all share (details): Cos-7, mean±s.e.m., read-out: pEC50 mutant (converted)

In assay [1] the target is T1, CT(a) receptor, R126A mutant (Homo sapiens, UniProt P30988, R126A).
T1 sequence (P30988 25-474 R126A): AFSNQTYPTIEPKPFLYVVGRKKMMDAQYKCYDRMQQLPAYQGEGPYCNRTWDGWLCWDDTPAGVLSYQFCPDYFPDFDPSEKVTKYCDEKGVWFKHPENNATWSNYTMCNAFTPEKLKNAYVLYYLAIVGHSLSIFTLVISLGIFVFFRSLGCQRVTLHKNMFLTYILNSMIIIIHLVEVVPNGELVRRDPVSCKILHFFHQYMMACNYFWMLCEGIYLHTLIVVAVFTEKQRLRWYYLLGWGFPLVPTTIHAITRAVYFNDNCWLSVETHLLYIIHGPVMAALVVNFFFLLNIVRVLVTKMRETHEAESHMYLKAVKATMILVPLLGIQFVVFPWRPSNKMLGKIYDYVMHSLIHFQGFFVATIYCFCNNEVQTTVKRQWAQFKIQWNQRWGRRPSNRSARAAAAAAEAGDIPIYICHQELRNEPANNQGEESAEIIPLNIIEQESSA
Description: cAMP assay, R126A CT(a). The text has this: (§1) This is the insert-negative form of the receptor and is referred to as hCT(a), to comply with International Union of Pharmacology guidelines. Myc tagged RAMP1 and untagged RAMP3 constructs were used for AMY receptor experiments.
(§2) Primers were purchased from Integrated DNA Technologies Ltd (Coralville, IA, USA). Kapa HiFi readymix (Kapa Biosystems, Wilmington, MA, USA) or Primestar HS enzymes (TaKaRa Bio, Kyoto, Japan) were substituted for Pfu polymerase.
(§3) After stimulation the reaction was stopped by removing media and adding 50 μl per well of ice-cold absolute ethanol. Plates were stored at −30 °C for up to 4 days before the measurement of cAMP was performed.

Assay [2] deals with T2, CT(a) receptor, W79A mutant (Homo sapiens, UniProt P30988, W79A).
T2 sequence (P30988 25-474 W79A): T1 sequence (P30988 25-474 R126A) with W55A, A102R
In words: cAMP assay, W79A CT(a).
Source text: as §1, §2, §3

The target in assay [3] is T3, CT(a) receptor, W128A mutant (Homo sapiens, UniProt P30988, W128A).
T3 sequence (P30988 25-474 W128A): T1 sequence (P30988 25-474 R126A) with A102R, W104A
In words: cAMP assay, W128A CT(a).
Source text: as §1, §2, §3

The target in assay [4] is T4, CT(a) receptor, D101A mutant (Homo sapiens, UniProt P30988, D101A).
T4 sequence (P30988 25-474 D101A): T1 sequence (P30988 25-474 R126A) with D77A, A102R
In words: cAMP assay, D101A CT(a).
Source text: as §1, §2, §3

In assay [5] the target is T5, CT(a) receptor, F102A mutant (Homo sapiens, UniProt P30988, F102A).
T5 sequence (P30988 25-474 F102A): T1 sequence (P30988 25-474 R126A) with F78A, A102R
Description: cAMP assay, F102A CT(a).
Source text: as §1, §2, §3

Changes are numbered by the printed parent chain.

For `CC(C)C[C@H](NC(=O)CNC(=O)[C@H](C)NC(=O)[C@H](CC(C)C)NC(=O)[C@H](CCCNC(=N)N)NC(=O)[C@H](Cc1cnc[nH]1)NC(=O)[C@@H](NC(=O)[C@@H](NC(=O)[C@@H]1CSSC[C@H](NC(=O)[C@H](C)N)C(=O)N[C@@H](CC(=O)O)C(=O)N[C@@H]([C@@H](C)O)C(=O)N[C@@H](C)C(=O)N[C@@H]([C@@H](C)O)C(=O)N1)C(C)C)[C@@H](C)O)C(=O)N[C@@H](CC(C)C)C(=O)N[C@@H](CO)C(=O)N[C@@H](CCCNC(=N)N)C(=O)N[C@@H](CO)C(=O)NCC(=O)NCC(=O)N[C@H](C(=O)N[C@H](C(=O)N[C@@H](CCCCN)C(=O)N[C@@H](CC(N)=O)C(=O)N[C@@H](CC(N)=O)C(=O)N[C@@H](Cc1ccccc1)C(=O)N[C@H](C(=O)N1CCC[C@H]1C(=O)N[C@H](C(=O)N[C@@H](CC(N)=O)C(=O)N[C@H](C(=O)NCC(=O)N[C@@H](CO)C(=O)N[C@@H](CCCCN)C(=O)N[C@@H](C)C(=O)N[C@@H](Cc1ccccc1)C(N)=O)C(C)C)[C@@H](C)O)C(C)C)C(C)C)C(C)C` [hαCGRP, human αCGRP], the EC50 in assay [1] was 20.9 nM; in assay [2], 447 nM; in assay [3], 182 nM; in assay [4] it was 309 nM; in assay [5], 501 nM.
